In PubChem BioAssay AID2060485 (Molecular Pharmacology Branch, DTP, NCI, 2025):

Test system: A375 multi-cell spheroids with HUVEC/MSC, viability
Experiment: Anticancer human tumor A375 cell line growth inhibition [GQUAD];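 note: spheroids exposed to compounds for seven days before readout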
Conditions: for IC50: curve of first compound; for viability, T/C: stronger effect = lower value
Method in brief: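 Multi-cell-type spheroids of tumor cells with HUVEC and mesenchymal stem cells, treated with drug combinations. Concentrations descend in half-log steps from near clinical Cmax, or from 10 microM where Cmax is unknown; viability read-out.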

[1] = second compound 0.0316 µM, first compound 0.0316 µM
[2] = second compound 0.0316 µM, first compound 0.316 µM
[3] = second compound 0.1 µM, first compound 0.0316 µM
[4] = second compound 0.1 µM, first compound 0.316 µM
[5] = second compound 0.316 µM, first compound 0.0316 µM
[6] = second compound 0.316 µM, first compound 0.316 µM
[7] = second compound 1 µM, first compound 0.0316 µM
[8] = second compound 1 µM, first compound 0.316 µM
[9] = second compound 3.16 µM, first compound 0.0316 µM
[10] = second compound 3.16 µM, first compound 0.316 µM
[11] = second compound 10 µM, first compound 0.0316 µM
[12] = second compound 10 µM, first compound 0.316 µM

SMILES: Cn1ncnc1[C@H]1c2n[nH]c(=O)c3cc(F)cc(c23)N[C@@H]1c1ccc(F)cc1 + Cc1[nH]c2ccc(F)cc2c1-c1nc2c3cccnc3c3ncccc3c2[nH]1
- IC50 (second compound 0.0316 µM): > 316 nM
- IC50 (second compound 0.1 µM): > 316 nM
- IC50 (second compound 0.316 µM): > 316 nM
- IC50 (second compound 1 µM): > 316 nM
- IC50 (second compound 3.16 µM): > 316 nM
- IC50 (second compound 10 µM): > 316 nM
- viability, T/C (second compound 0.0316 µM, first compound 0.000999 µM): 106%
- viability, T/C (second compound 0.0316 µM, first compound 0.00316 µM): 98.1%
- viability, T/C (second compound 0.0316 µM, first compound 0.00999 µM): 108%
- viability, T/C [1]: 106%
- viability, T/C (second compound 0.0316 µM, first compound 0.0999 µM): 104%
- viability, T/C [2]: 97.4%
- viability, T/C (second compound 0.1 µM, first compound 0.000999 µM): 96.3%
- viability, T/C (second compound 0.1 µM, first compound 0.00316 µM): 97.5%
- viability, T/C (second compound 0.1 µM, first compound 0.00999 µM): 102%
- viability, T/C [3]: 103%
- viability, T/C (second compound 0.1 µM, first compound 0.0999 µM): 125%
- viability, T/C [4]: 114%
- viability, T/C (second compound 0.316 µM, first compound 0.000999 µM): 108%
- viability, T/C (second compound 0.316 µM, first compound 0.00316 µM): 105%
- viability, T/C (second compound 0.316 µM, first compound 0.00999 µM): 106%
- viability, T/C [5]: 112%
- viability, T/C (second compound 0.316 µM, first compound 0.0999 µM): 131%
- viability, T/C [6]: 121%
- viability, T/C (second compound 1 µM, first compound 0.000999 µM): 100%
- viability, T/C (second compound 1 µM, first compound 0.00316 µM): 98%
- viability, T/C (second compound 1 µM, first compound 0.00999 µM): 115%
- viability, T/C [7]: 137%
- viability, T/C (second compound 1 µM, first compound 0.0999 µM): 138%
- viability, T/C [8]: 116%
- viability, T/C (second compound 3.16 µM, first compound 0.000999 µM): 83.7%
- viability, T/C (second compound 3.16 µM, first compound 0.00316 µM): 93.6%
- viability, T/C (second compound 3.16 µM, first compound 0.00999 µM): 92.3%
- viability, T/C [9]: 78.3%
- viability, T/C (second compound 3.16 µM, first compound 0.0999 µM): 80.7%
- viability, T/C [10]: 72%
- viability, T/C (second compound 10 µM, first compound 0.000999 µM): 106%
- viability, T/C (second compound 10 µM, first compound 0.00316 µM): 95.7%
- viability, T/C (second compound 10 µM, first compound 0.00999 µM): 112%
- viability, T/C [11]: 101%
- viability, T/C (second compound 10 µM, first compound 0.0999 µM): 96.8%
- viability, T/C [12]: 90.9%

SMILES: Nc1ccn(C2OC(CO)C(O)C2(F)F)c(=O)n1 (centres undefined) + Cc1[nH]c2ccc(F)cc2c1-c1nc2c3cccnc3c3ncccc3c2[nH]1
- IC50 (second compound 0.0316 µM): < 31.6 nM
- IC50 (second compound 0.1 µM): < 31.6 nM
- IC50 (second compound 0.316 µM): < 31.6 nM
- IC50 (second compound 1 µM): < 31.6 nM
- IC50 (second compound 3.16 µM): < 31.6 nM
- IC50 (second compound 10 µM): < 31.6 nM
- viability, T/C [1]: 20.4%
- viability, T/C (second compound 0.0316 µM, first compound 0.1 µM): 11%
- viability, T/C [2]: 10.3%
- viability, T/C (second compound 0.0316 µM, first compound 1 µM): 8.14%
- viability, T/C (second compound 0.0316 µM, first compound 3.16 µM): 10.7%
- viability, T/C (second compound 0.0316 µM, first compound 10 µM): 10.2%
- viability, T/C [3]: 22.9%
- viability, T/C (second compound 0.1 µM, first compound 0.1 µM): 9.94%
- viability, T/C [4]: 12%
- viability, T/C (second compound 0.1 µM, first compound 1 µM): 9.5%
- viability, T/C (second compound 0.1 µM, first compound 3.16 µM): 12.2%
- viability, T/C (second compound 0.1 µM, first compound 10 µM): 8.91%
- viability, T/C [5]: 21.1%
- viability, T/C (second compound 0.316 µM, first compound 0.1 µM): 12.7%
- viability, T/C [6]: 11.2%
- viability, T/C (second compound 0.316 µM, first compound 1 µM): 10.8%
- viability, T/C (second compound 0.316 µM, first compound 3.16 µM): 10.8%
- viability, T/C (second compound 0.316 µM, first compound 10 µM): 11.3%
- viability, T/C [7]: 22.9%
- viability, T/C (second compound 1 µM, first compound 0.1 µM): 12.7%
- viability, T/C [8]: 14.8%
- viability, T/C (second compound 1 µM, first compound 1 µM): 13.6%
- viability, T/C (second compound 1 µM, first compound 3.16 µM): 12.8%
- viability, T/C (second compound 1 µM, first compound 10 µM): 11.8%
- viability, T/C [9]: 15.4%
- viability, T/C (second compound 3.16 µM, first compound 0.1 µM): 13.1%
- viability, T/C [10]: 13%
- viability, T/C (second compound 3.16 µM, first compound 1 µM): 13.9%
- viability, T/C (second compound 3.16 µM, first compound 3.16 µM): 19%
- viability, T/C (second compound 3.16 µM, first compound 10 µM): 13.9%
- viability, T/C [11]: 16.1%
- viability, T/C (second compound 10 µM, first compound 0.1 µM): 10.7%
- viability, T/C [12]: 10.9%
- viability, T/C (second compound 10 µM, first compound 1 µM): 10.3%
- viability, T/C (second compound 10 µM, first compound 3.16 µM): 13.2%
- viability, T/C (second compound 10 µM, first compound 10 µM): 12%
